Experimental data: PubChem BioAssay (NCI)
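Test compounds were applied to cells in 96-well plates for 48 hours at 5 doses. TGI: total growth inhibition.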

Assays:
Assay in all cases: growth of human tumour cells (NCI), 48 h
[1] = system: SNB-75 CNS
[2] = system: M14 melanoma
[3] = system: HT29 colon
[4] = system: RPMI-8226 leukemia
[5] = system: TK-10 renal
[6] = system: NCI-H522 lung
[7] = system: T-47D breast
[8] = system: MOLT-4 leukemia
[9] = system: NCI-H226 lung
[10] = system: EKVX NSCLC

| SMILES | TGI [1] | TGI [2] | TGI [3] | TGI [4] | TGI [5] | TGI [6] | TGI [7] | TGI [8] | TGI [9] | TGI [10] |
| --- | --- | --- | --- | --- | --- | --- | --- | --- | --- | --- |
| O=C1/C(=C/c2ccccc2)N=C(c2ccccc2)N1n1c(-c2ccccc2)nc2ccccc2c1=O | > 100 µM | > 100 µM | > 100 µM | > 100 µM | > 100 µM | > 100 µM | > 100 µM | > 100 µM | > 100 µM | > 100 µM |
| CCCCCCCCCCCCCCCCCCNc1ccn(C2OC(COP(=O)(O)OCC3OC(n4ccc(NC(=O)CCCCCCCCCCCCCCCCC)nc4=O)C(OC(C)=O)C3OC(C)=O)C(OC(C)=O)C2OC(C)=O)c(=O)n1 (stereo not given) | > 100 µM | > 100 µM | > 100 µM | > 100 µM | > 100 µM | > 100 µM | > 100 µM | > 100 µM | > 100 µM | > 100 µM |
| CC(C)c1ccc2[nH]c(O)c(-c3[nH]c4ccccc4c3N=O)c2c1 | 26.3 µM | 23.6 µM | 15 µM | 22.3 µM | 43.4 µM | 14.6 µM | 25.4 µM | 15.1 µM | 29.4 µM | 16.6 µM |
| CN(C)CCCOc1nc2c(c(=O)n(C)c(=O)n2C)n1C (tested in a mixture with another compound) | > 100 µM | > 100 µM | > 100 µM | > 100 µM | 42.1 µM | > 100 µM | > 100 µM | 13.9 µM | 47.7 µM | > 100 µM |
| COc1ccc(C2CC(c3c(O)ccc4ccccc34)=NN2c2ccc([N+](=O)[O-])cc2[N+](=O)[O-])cc1OC (stereo not given) | 70.8 µM | > 100 µM | 38.3 µM | 15.8 µM | > 100 µM | > 42.9 µM | 79.7 µM | 21.5 µM | 48.9 µM | > 67 µM |
| COc1ccc(-c2cc(-c3ccco3)c(C#N)c(=S)n2C2OC(COC(C)=O)C(OC(C)=O)C(OC(C)=O)C2OC(C)=O)cc1 (stereo not given) | 17.7 µM | 17.7 µM | 14.8 µM | 22.8 µM | 45.1 µM | 18 µM | 21.7 µM | > 100 µM | 16.5 µM | 32.2 µM |
| NC(=O)N/N=C(\Cc1nc2ccc(Cl)cc2[nH]c1=O)C(=O)Nc1ccc(Cl)cc1Cl | > 100 µM | > 100 µM | > 100 µM | > 100 µM | > 100 µM | > 100 µM | > 100 µM | > 100 µM | > 100 µM | > 100 µM |
| CC(C)(C)c1ccc2c(c1)CNCCNCc1cc(C(C)(C)C)ccc1OCC1(CO2)COc2ccc(C(C)(C)C)cc2CNCCNCc2cc(C(C)(C)C)ccc2OC1 | 2.96 µM | 1.45 µM | 0.472 µM | 4.2 µM | 3.32 µM | 0.421 µM | 3.73 µM | 0.504 µM | 2.26 µM | 2.42 µM |
| OCC1CCCCCCCCCCC12SCCCS2 (stereo not given) | > 100 µM | > 100 µM | > 100 µM | > 100 µM | > 100 µM | > 100 µM | > 100 µM | > 100 µM | > 100 µM | > 100 µM |
| COc1ccccc1Nc1nc(N)nc(N)c1N=O | > 100 µM | > 100 µM | > 100 µM | > 100 µM | > 100 µM | > 100 µM | > 100 µM | > 100 µM | > 100 µM | > 100 µM |
| O=C(Nc1ccc(Br)cc1)c1c(-c2ccccc2)c2ccc(O)cc2oc1=O | > 10 µM | > 10 µM | > 10 µM | > 10 µM | > 10 µM | > 10 µM | > 10 µM | > 10 µM | > 10 µM | > 10 µM |
| OC1C2[C@@H](O)CCCN2C[C@@H](O)[C@H]1O (stereo not given in full) | > 100 µM | > 100 µM | > 100 µM | > 100 µM | > 100 µM | > 100 µM | > 100 µM | > 100 µM | > 100 µM | > 100 µM |
| O=C(CCCCCCCCC(=O)NN1C(=O)/C(=C\c2ccc(O)c(O)c2)SC1c1ccc(Cl)cc1)NN1C(=O)/C(=C\c2ccc(O)c(O)c2)SC1c1ccc(Cl)cc1 (stereo not given) | > 100 µM | > 100 µM | > 100 µM | > 31.6 µM | > 100 µM | 32.5 µM | > 100 µM | 15.3 µM | > 100 µM | > 100 µM |
| COc1cc(-c2cc(=O)c3cc4c(cc3[nH]2)OCO4)cc(OC)c1O | > 10 µM | > 10 µM | > 10 µM | > 10 µM | > 10 µM | > 10 µM | > 10 µM | > 10 µM | > 10 µM | > 10 µM |
| O=C1C(Cl)=C(N2CCN(C3=C(Cl)C(=O)c4ccccc4C3=O)CC2)C(=O)c2ccccc21 | 9.86 µM | 2.87 µM | 5.27 µM | 14 µM | 3.42 µM | 1.83 µM | 2.06 µM | 1.69 µM | 11.8 µM | 4.91 µM |
| Cc1c(-c2nc3ccccc3[nH]2)c(=O)n(-c2ccccc2)n1C | > 100 µM | > 100 µM | > 100 µM | > 100 µM | > 100 µM | > 100 µM | > 100 µM | > 100 µM | > 100 µM | > 100 µM |
